Paper PMC4459817, “Vasculotide reduces endothelial permeability and tumor cell extravasation in the absence of binding to or agonistic activation of Tie2” (EMBO Molecular Medicine, 2015)

T1: mouse Tie2-Fc (Fc-conjugated extracellular domain of Tie2) (mouse, UniProt Q02858 23-746)
T1 chain: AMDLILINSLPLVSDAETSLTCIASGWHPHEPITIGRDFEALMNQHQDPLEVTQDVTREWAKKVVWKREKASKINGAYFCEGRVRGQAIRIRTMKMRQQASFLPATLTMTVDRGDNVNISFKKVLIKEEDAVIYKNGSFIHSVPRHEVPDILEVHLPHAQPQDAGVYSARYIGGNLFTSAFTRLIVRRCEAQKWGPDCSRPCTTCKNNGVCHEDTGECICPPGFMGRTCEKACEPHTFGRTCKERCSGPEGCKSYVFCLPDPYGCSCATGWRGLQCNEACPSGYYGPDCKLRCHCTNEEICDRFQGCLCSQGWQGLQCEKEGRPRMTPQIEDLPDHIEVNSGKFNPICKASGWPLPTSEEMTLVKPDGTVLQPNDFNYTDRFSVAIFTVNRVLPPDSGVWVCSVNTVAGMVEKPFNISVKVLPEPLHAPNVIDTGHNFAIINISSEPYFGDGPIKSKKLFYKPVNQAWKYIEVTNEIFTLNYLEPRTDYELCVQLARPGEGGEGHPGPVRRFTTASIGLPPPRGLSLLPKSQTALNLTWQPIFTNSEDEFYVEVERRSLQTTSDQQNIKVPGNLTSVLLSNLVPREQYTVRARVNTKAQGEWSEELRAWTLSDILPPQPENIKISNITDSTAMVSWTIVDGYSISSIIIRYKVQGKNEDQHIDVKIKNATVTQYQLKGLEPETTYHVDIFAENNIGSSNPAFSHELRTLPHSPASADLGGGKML


Assays:
[1] = test system: tumor cells across dermal HMVECs; experiment: modified Boyden chamber, TC-CM stimulated tumor cell migration; assay type: cell-based, human; conditions: Fig4B; for TC migration in presence of TC-CM: 20 ng/mL VT or 400 ng/mL Ang1 vs PBS, paired t-test, n = 6 experimental replicates; for inhibition of TC migration, on average: 20 ng/mL VT
Experimental: (§1) To investigate this possibility in vitro, we performed modified Boyden chamber assays where we stimulated ECs with tumor cell-conditioned media (TC-CM)—that is, supplement-reduced EC growth media containing all the cytokines naturally secreted by LM2-4^luc, SN12^luc, or HT29^luc cells over 30 hours of hypoxic incubation (1% O2).
(§2) Meta-analyses of treatment effects on dextran permeability (A) and tumor cell migration (B), where each datapoint represents the mean of an independent experiment, averaged over 2–3 biological replicates (inserts) per treatment group and normalized internally within that same experiment.
Endothelial cells (ECs) were grown on cell culture inserts with uncoated 8-μm-pore PET filter membranes to 100% confluency. See Supplementary Fig S4 for detailed timelines. […] Permeability assays: A total of 100 μg of FITC-dextran (Sigma FD-20S) was dispensed into the upper chamber media. After 30 min of thrombin stimulation or 4–6 h of TC-CM stimulation, FITC fluorescence (ex/em = 490/520 nm) was measured from a 50 μl sample of the lower chamber media. Tumor cell extravasation assays: A total of 4 × 10^4 TCs freshly labeled with CellTracker™ Red CMPTX (Invitrogen C34552: ex/em = 577/602 nm) were seeded into each insert. Where EDTA was used in the permeability assay, the assay media was changed to remove EDTA before introducing TCs. After a 15- to 30-h incubation, the ECs and non-migrated TCs above insert membranes were removed with a cotton swab, whereas migrated/‘extravasated’ TCs and ECs below insert membranes were fixed in 4% PFA. Fixed membranes were mounted onto slides with DAPI stain. CMPTX fluorescence from migrated TCs was then quantified from 10× microscopy images using a MATLAB (MathWorks, Natick, MA, USA) script; five images (technical replicates) were analyzed per insert.
TCs were cultured in DMEM High Glucose basal media supplemented with 5% FBS and grown humidified incubators at 37 °C, 21%O2 and 5%CO2 unless otherwise specified. LM2-4 luc is a highly metastatically aggressive variant of the human breast carcinoma MDA-MB-231 cell line (derived through serial in vivo selection of lung metastases from orthotopic implantations in immunodeficient mice) that has been transfected with a firefly luciferase vector (Man et al, 2007; Ebos et al, 2009). HT29luc is a human colon carcinoma cell line also transfected with the luciferase gene (Hackl et al, 2013). SN12luc refers to a luciferase-tagged and highly metastatic clone of a human renal cell carcinoma cell line, SN12-

dermal HMVECs = experiment: modified Boyden chamber, tumor cell-conditioned media (TC-CM) stimulated dextran permeability; assay type: cell-based, human; conditions: 20 ng/mL VT or 400 ng/mL Ang1 vs PBS; paired t-test, n = 11 experimental replicates; Fig4A
Experimental: as §1, §2
Endothelial cells (ECs) were grown on cell culture inserts with uncoated 8-μm-pore PET filter membranes to 100% confluency. See Supplementary Fig S4 for detailed timelines. […] Permeability assays: A total of 100 μg of FITC-dextran (Sigma FD-20S) was dispensed into the upper chamber media. After 30 min of thrombin stimulation or 4–6 h of TC-CM stimulation, FITC fluorescence (ex/em = 490/520 nm) was measured from a 50 μl sample of the lower chamber media. […] CMPTX fluorescence from migrated TCs was then quantified from 10× microscopy images using a MATLAB (MathWorks, Natick, MA, USA) script; five images (technical replicates) were analyzed per insert. […]

[2] = biological target: T1, mouse Tie2-Fc (Fc-conjugated …); experiment: SPR

Row | Kd [2] [pM] | Molecule | TC migration in presence of TC-CM [1] | inhibition of TC migration, on average ([1]; LM2-4luc-conditioned media) [%] | inhibition of TC migration, on average ([1]; SN12luc-conditioned media) [%] | transendothelial macromolecular (dextran) permeability in presence of TC-CM (dermal HMVECs)
1 | – | CHHHRHSF [Vasculotide, 4-armed maleimide-functionalized polyethylene glycol (PEG) backbone to link together four cysteine-capped T7 peptides, that is, CHHHRHSF] | P = 0.10 for VT | −43 | −23 | reduced transendothelial macromolecular permeability (P < 0.05
2 | 237 | recombinant human Ang1 (rhAng1) (ligand, UniProt Q15389 16-498, looked up, angiopoietin-1, human, recombinant; also called angiopoietin-1; source: bought: R&D Systems (named for the Boyden chamber experiments)) HIGCSNQRRSPENSGRRYNRIQHGQCAYTFILPEHDGNCRESTTDQYNTNALQRDAPHVEPDFSSQKLQHLEHVMENYTQWLQKLENYIVENMKSEMAQIQQNAVQNHTATMLEIGTSLLSQTAEQTRKLTDVETQVLNQTSRLEIQLLENSLSTYKLEKQLLQQTNEILKIHEKNSLLEHKILEMEGKHKEELDTLKEEKENLQGLVTRQTYIIQELEKQLNRATTNNSVLQKQQLELMDTVHNLVNLCTKEGVLLKGGKREEEKPFRDCADVYQAGFNKSGIYTIYINNMPEPKKVFCNMDVNGGGWTVIQHREDGSLDFQRGWKEYKMGFGNPSGEYWLGNEFIFAITSQRQYMLRIELMDWEGNRAYSQYDRFHIGNEKQNYRLYLKGHTGTAGKQSSLILHGADFSTKDADNDNCMCKCALMLTGGWWFDACGPSNLNGMFYTAGQNHGKLNGIKWHYFKGPSYSLRSTTMMIRPLDF | P < 0.05 for Ang1 | – | – | reduced transendothelial macromolecular permeability (P < 0.05
